Patent US8445492B2, “Method for inhibiting growth of cancer cells and cell telomere and diseases of cell proliferation by using heteroannelated anthraquinone derivative compounds” (National Defense Medical Center, priority 2008, dated 2013)
Like-named read-outs stand apart in the source and are kept apart here.

Key:
[1] = tested on: PC-3
[2] = tested on: DU-145
[3] = tested on: MDA-MB-435; assay: NCI DTP in-vitro dose response, Breast Cancer; format: cell-based
[4] = tested on: T-47D; assay: NCI DTP in-vitro dose response, Breast Cancer; format: cell-based; conditions: T-47D
[5] = tested on: HS 578T; assay: NCI DTP in-vitro dose response, Breast Cancer; format: cell-based; conditions: HS 578T
[6] = tested on: MDA-MB-231/ATCC; assay: NCI DTP in-vitro dose response, Breast Cancer; format: cell-based; conditions: MDA-MB-231/ATCC
[7] = tested on: MCF7; assay: NCI DTP in-vitro dose response, Breast Cancer; format: cell-based
[8] = tested on: NCI/ADR-RES; assay: NCI DTP in-vitro dose response, Breast Cancer; format: cell-based; conditions: NCI/ADR-RES
[9] = tested on: BT-549; assay: NCI DTP in-vitro dose response, Breast Cancer; format: cell-based
[10] = read-out: LC50 (the source's name)

Structure (SMILES): O=C1c2ccccc2C(=O)c2c1ccc1nccnc21 [TABLE 5-8]
- TGI ([1]; PC-3): >1.00E−4
- Percent Growth ([1]; PC-3, Log10 Concentration −4.0): 50%
- Percent Growth ([1]; PC-3, Log10 Concentration −5.0): 50%
- Percent Growth ([1]; PC-3, Log10 Concentration −6.0): 69%
- Percent Growth ([1]; PC-3, Log10 Concentration −7.0): 92%
- Percent Growth ([1]; PC-3, Log10 Concentration −8.0): 101%
- CC50 ([1]; read-out: LC50, PC-3): > 100 µM
- GI50 ([2]; DU-145): 11.4 µM
- TGI ([2]; DU-145): 3.43E−5
- Percent Growth ([2]; DU-145, Log10 Concentration −4.0): −49%
- Percent Growth ([2]; DU-145, Log10 Concentration −5.0): 56%
- Percent Growth ([2]; DU-145, Log10 Concentration −6.0): 96%
- Percent Growth ([2]; DU-145, Log10 Concentration −7.0): 95%
- Percent Growth ([2]; DU-145, Log10 Concentration −8.0): 102%
- CC50 ([2]; read-out: LC50, DU-145): > 100 µM

Structure (SMILES): O=C1c2ccccc2C(=O)c2c1ccc1nccnc21 [TABLE 5-9]
- TGI ([3]; MDA-MB-435): 2.37E−5
- Percent Growth ([3]; MDA-MB-435, Log10 Concentration −4.0): −95%
- Percent Growth ([3]; MDA-MB-435, Log10 Concentration −5.0): 57%
- Percent Growth ([3]; MDA-MB-435, Log10 Concentration −6.0): 101%
- Percent Growth ([3]; MDA-MB-435, Log10 Concentration −7.0): 97%
- Percent Growth ([3]; MDA-MB-435, Log10 Concentration −8.0): 101%
- GI50 ([3]; MDA-MB-435, read-out: GI50): 11.1 µM
- CC50 ([3]; MDA-MB-435, read-out: LC50 (the source's name)): 50.4 µM
- TGI [4]: 7.51E−5
- Percent Growth ([4]; Log10 Concentration −4.0): −8%
- Percent Growth ([4]; Log10 Concentration −5.0): 56%
- Percent Growth ([4]; Log10 Concentration −6.0): 71%
- Percent Growth ([4]; Log10 Concentration −7.0): 80%
- Percent Growth ([4]; Log10 Concentration −8.0): 85%
- GI50 ([4]; read-out: GI50): 12.6 µM
- CC50 [4, 10]: > 100 µM
- TGI [5]: 9.14E−5
- Percent Growth ([5]; Log10 Concentration −4.0): −2%
- Percent Growth ([5]; Log10 Concentration −5.0): 59%
- Percent Growth ([5]; Log10 Concentration −6.0): 81%
- Percent Growth ([5]; Log10 Concentration −7.0): 90%
- Percent Growth ([5]; Log10 Concentration −8.0): 88%
- GI50 ([5]; read-out: GI50): 14.1 µM
- CC50 [5, 10]: > 100 µM
- TGI [6]: >1.00E−4
- Percent Growth ([6]; Log10 Concentration −4.0): 14%
- Percent Growth ([6]; Log10 Concentration −5.0): 64%
- Percent Growth ([6]; Log10 Concentration −6.0): 85%
- Percent Growth ([6]; Log10 Concentration −7.0): 88%
- Percent Growth ([6]; Log10 Concentration −8.0): 100%
- GI50 ([6]; read-out: GI50): 19.1 µM
- CC50 [6, 10]: > 100 µM
- TGI ([7]; MCF7): 2.98E−5
- Percent Growth ([7]; MCF7, Log10 Concentration −4.0): −29%
- Percent Growth ([7]; MCF7, Log10 Concentration −5.0): 27%
- Percent Growth ([7]; MCF7, Log10 Concentration −6.0): 45%
- Percent Growth ([7]; MCF7, Log10 Concentration −7.0): 80%
- Percent Growth ([7]; MCF7, Log10 Concentration −8.0): 81%
- GI50 ([7]; MCF7, read-out: GI50): 0.722 µM
- CC50 ([7]; MCF7, read-out: LC50 (the source's name)): > 100 µM
- TGI [8]: >1.00E−4
- Percent Growth ([8]; Log10 Concentration −4.0): 8%
- Percent Growth ([8]; Log10 Concentration −5.0): 38%
- Percent Growth ([8]; Log10 Concentration −6.0): 87%
- Percent Growth ([8]; Log10 Concentration −7.0): 92%
- Percent Growth ([8]; Log10 Concentration −8.0): 95%
- GI50 ([8]; read-out: GI50): 5.68 µM
- CC50 [8, 10]: > 100 µM
- TGI ([9]; BT-549): 9.35E−5
- Percent Growth ([9]; BT-549, Log10 Concentration −4.0): −2%
- Percent Growth ([9]; BT-549, Log10 Concentration −5.0): 55%
- Percent Growth ([9]; BT-549, Log10 Concentration −6.0): 83%
- Percent Growth ([9]; BT-549, Log10 Concentration −7.0): 85%
- Percent Growth ([9]; BT-549, Log10 Concentration −8.0): 95%
- GI50 ([9]; BT-549, read-out: GI50): 12.2 µM
- CC50 ([9]; BT-549, read-out: LC50 (the source's name)): > 100 µM
